# How the values were obtained:
# [1] = Hepatotoxicity in C57BL/6 mouse assessed as effect on bilirubin level at 0.5 mg/kg, iv administered measured after 7 days; type: toxicity, organism-based; conditions: in vivo, 168 h, time 7 day
# [2] = Hepatotoxicity in C57BL/6 mouse assessed as effect on bilirubin level at 1 mg/kg, iv administered measured after 7 days; type: toxicity, organism-based; conditions: in vivo, 168 h, time 7 day
# [3] = Hepatotoxicity in C57BL/6 mouse assessed as effect on bilirubin level at 5 mg/kg, iv administered measured after 7 days; type: toxicity, organism-based; conditions: in vivo, 168 h, time 7 day
# [4] = Hepatotoxicity in C57BL/6 mouse assessed as effect on bilirubin level at 10 mg/kg, iv administered measured after 7 days; type: toxicity, organism-based; conditions: in vivo, 168 h, time 7 day
# [5] = Hepatotoxicity in C57BL/6 mouse assessed as effect on alanine aminotransferase level at 0.5 mg/kg, iv administered measured after 7 days; type: toxicity, organism-based; conditions: in vivo, 168 h, time 7 day
# [6] = Hepatotoxicity in C57BL/6 mouse assessed as effect on alanine aminotransferase level at 1 mg/kg, iv administered measured after 7 days; type: toxicity, organism-based; conditions: in vivo, 168 h, time 7 day
# [7] = Hepatotoxicity in C57BL/6 mouse assessed as effect on alanine aminotransferase level at 5 mg/kg, iv administered measured after 7 days; type: toxicity, organism-based; conditions: in vivo, 168 h, time 7 day
# [8] = Hepatotoxicity in C57BL/6 mouse assessed as effect on alanine aminotransferase level at 10 mg/kg, iv administered measured after 7 days; type: toxicity, organism-based; conditions: in vivo, 168 h, time 7 day
# [9] = Hepatotoxicity in C57BL/6 mouse assessed as effect on aspartate aminotransferase level at 0.5 mg/kg, iv administered measured after 7 days; type: toxicity, organism-based; conditions: in vivo, 168 h, time 7 day
# [10] = Hepatotoxicity in C57BL/6 mouse assessed as effect on aspartate aminotransferase level at 1 mg/kg, iv administered measured after 7 days; type: toxicity, organism-based; conditions: in vivo, 168 h, time 7 day
# [11] = Hepatotoxicity in C57BL/6 mouse assessed as effect on aspartate aminotransferase level at 5 mg/kg, iv administered measured after 7 days; type: toxicity, organism-based; conditions: in vivo, 168 h, time 7 day
# [12] = Hepatotoxicity in C57BL/6 mouse assessed as effect on aspartate aminotransferase level at 10 mg/kg, iv administered measured after 7 days; type: toxicity, organism-based; conditions: in vivo, 168 h, time 7 day
# [13] = Hepatotoxicity in C57BL/6 mouse assessed as effect on alkaline phosphatase level at 0.5 mg/kg, iv administered measured after 7 days; type: toxicity, organism-based; conditions: in vivo, 168 h, time 7 day
# [14] = Hepatotoxicity in C57BL/6 mouse assessed as effect on alkaline phosphatase level at 1 mg/kg, iv administered measured after 7 days; type: toxicity, organism-based; conditions: in vivo, 168 h, time 7 day
# [15] = Hepatotoxicity in C57BL/6 mouse assessed as effect on alkaline phosphatase level at 5 mg/kg, iv administered measured after 7 days; type: toxicity, organism-based; conditions: in vivo, 168 h, time 7 day
# [16] = Hepatotoxicity in C57BL/6 mouse assessed as effect on alkaline phosphatase level at 10 mg/kg, iv administered measured after 7 days; type: toxicity, organism-based; conditions: in vivo, 168 h, time 7 day
# [17] = Hepatotoxicity in C57BL/6 mouse assessed as effect on gamma glutamyl transferase level at 0.5 mg/kg, iv administered measured after 7 days; type: toxicity, organism-based; conditions: in vivo, 168 h, time 7 day
# [18] = Hepatotoxicity in C57BL/6 mouse assessed as effect on gamma glutamyl transferase level at 1 mg/kg, iv administered measured after 7 days; type: toxicity, organism-based; conditions: in vivo, 168 h, time 7 day
# [19] = Hepatotoxicity in C57BL/6 mouse assessed as effect on gamma glutamyl transferase level at 5 mg/kg, iv administered measured after 7 days; type: toxicity, organism-based; conditions: in vivo, 168 h, time 7 day
# [20] = Hepatotoxicity in C57BL/6 mouse assessed as effect on gamma glutamyl transferase level at 10 mg/kg, iv administered measured after 7 days; type: toxicity, organism-based; conditions: in vivo, 168 h, time 7 day
# [21] = Hepatotoxicity in C57BL/6 mouse assessed as effect on amylase level at 0.5 mg/kg, iv administered measured after 7 days; type: toxicity, organism-based; conditions: in vivo, 168 h, time 7 day
# [22] = Hepatotoxicity in C57BL/6 mouse assessed as effect on amylase level at 1 mg/kg, iv administered measured after 7 days; type: toxicity, organism-based; conditions: in vivo, 168 h, time 7 day
# [23] = Hepatotoxicity in C57BL/6 mouse assessed as effect on amylase level at 5 mg/kg, iv administered measured after 7 days; type: toxicity, organism-based; conditions: in vivo, 168 h, time 7 day
# [24] = Hepatotoxicity in C57BL/6 mouse assessed as effect on amylase level at 10 mg/kg, iv administered measured after 7 days; type: toxicity, organism-based; conditions: in vivo, 168 h, time 7 day
# Mononuclear cell line [25] = type: toxicity, cell-based; conditions: human, 72 h, 1 µM
# Mononuclear cell line [26] = type: toxicity, cell-based; conditions: human, 72 h, 10 µM
# Mononuclear cell line [27] = type: toxicity, cell-based; conditions: human, 72 h, 0.001 µM, dose 1 nM
# Mononuclear cell line [28] = type: toxicity, cell-based; conditions: human, 72 h, 0.01 µM, dose 10 nM
# [29] = Toxicity in C57BL/6 mouse assessed as effect on aspartate aminotransferase level in serum at 0.5 mg/kg, iv measured after 7 days; type: organism-based; conditions: in vivo, 168 h, time 7 day
# [30] = Toxicity in C57BL/6 mouse assessed as effect on aspartate aminotransferase level in serum at 5 mg/kg, iv measured after 7 days; type: organism-based; conditions: in vivo, 168 h, time 7 day
# [31] = AUC (0 to t) in CD rat plasma at 3 mg/kg/day, IV administered measured up to 24 hrs by LC-MS/MS analysis; type: ADME, organism-based; set-up: route intravenous, dose 3 mg/kg/day, time <=24
# [32] = AUC (0 to infinity) in CD rat plasma at 3 mg/kg/day, IV administered measured up to 24 hrs by LC-MS/MS analysis; type: ADME, organism-based; set-up: route intravenous, dose 3 mg/kg/day, time <=24
# [33] = Intrinsic clearance in CD rat plasma at 3 mg/kg/day, IV administered measured up to 24 hrs by LC-MS/MS analysis; type: ADME, organism-based; conditions: in vivo
# [34] = Volume of distribution at steady state in CD rat at 3 mg/kg/day, IV administered measured up to 24 hrs by LC-MS/MS analysis; type: ADME, organism-based; conditions: in vivo, read-out: Vdss
# [35] = MRT in CD rat plasma at 3 mg/kg/day, IV administered measured up to 24 hrs by LC-MS/MS analysis; type: ADME, organism-based
# [36] = Terminal half life in CD rat at 3 mg/kg/day, IV administered measured up to 24 hrs by LC-MS/MS analysis; type: ADME, organism-based; conditions: in vivo, read-out: beta t1/2 (converted)
# [37] = Metabolic stability in mouse microsomes assessed as intrinsic clearance; type: ADME, Microsome
# [38] = Metabolic stability in rat microsomes assessed as intrinsic clearance; type: ADME, Microsome; conditions: read-out: CLH
# [39] = Metabolic stability in human microsomes assessed as intrinsic clearance; type: ADME, Microsome; conditions: read-out: CLH
smiles,measurement,setting,value
COc1ccc(NC(=O)c2cccc(-c3nc(NC(P(=O)(O)O)P(=O)(O)O)c4ccsc4n3)c2)cc1F,Activity,[1],Non-Toxic
same,Activity,[2],Non-Toxic
same,Activity,[3],Non-Toxic
same,Activity,[4],Non-Toxic
same,Activity,[5],Non-Toxic
same,Activity,[6],Non-Toxic
same,Activity,[7],Non-Toxic
same,Activity,[8],Non-Toxic
same,Activity,[9],Non-Toxic
same,Activity,[10],Non-Toxic
same,Activity,[11],Non-Toxic
same,Activity,[12],Non-Toxic
same,Activity,[13],Non-Toxic
same,Activity,[14],Non-Toxic
same,Activity,[15],Non-Toxic
same,Activity,[16],Non-Toxic
same,Activity,[17],Non-Toxic
same,Activity,[18],Non-Toxic
same,Activity,[19],Non-Toxic
same,Activity,[20],Non-Toxic
same,Activity,[21],Non-Toxic
same,Activity,[22],Non-Toxic
same,Activity,[23],Non-Toxic
same,Activity,[24],Non-Toxic
same,Activity,Mononuclear cell line [25],17.8%
same,Activity,Mononuclear cell line [26],21.3%
same,Activity,Mononuclear cell line [27],79.7%
same,Activity,Mononuclear cell line [28],77.2%
same,Activity,[29],Non-Toxic
same,Activity,[30],Non-Toxic
same,AUC(0-t) at 24 h,[31],149 µM·h
same,AUC(0-inf),[32],155 µM·h
same,CL,[33],0.567 mL/min/kg
same,Vd,[34],0.211 L/kg
same,MRT,[35],6.21 h
same,half-life,[36],5.34 h
same,CLH,[37],27 µL/min/mg
same,microsomal CLint,[38],13 µL/min/mg
same,microsomal CLint,[39],7 µL/min/mg

# — ChEMBL document CHEMBL5046266, “Synthesis and Evaluation of Structurally Diverse C-2-Substituted Thienopyrimidine-Based Inhibitors of the Human Geranylgeranyl Pyrophosphate Synthase” (J Med Chem, 2022)
